Measurements reported in ChEMBL document CHEMBL3991601, “The target landscape of clinical kinase drugs” (Science, 2017).
Calls of active or inactive are those of the source.

Tests used:
[1] = target: Uncharacterized aarF domain-containing protein kinase 5 (Homo sapiens, UniProt Q3MIX3)
[2] = target: Cyclin-dependent kinase 17 (Homo sapiens, UniProt Q00537)
[3] = target: Cyclin-dependent kinase 2 (Homo sapiens, UniProt P24941)
[4] = target: T1, Eukaryotic translation initiation factor 5B (Homo sapiens, UniProt O60841)
T1 sequence (O60841 whole entry): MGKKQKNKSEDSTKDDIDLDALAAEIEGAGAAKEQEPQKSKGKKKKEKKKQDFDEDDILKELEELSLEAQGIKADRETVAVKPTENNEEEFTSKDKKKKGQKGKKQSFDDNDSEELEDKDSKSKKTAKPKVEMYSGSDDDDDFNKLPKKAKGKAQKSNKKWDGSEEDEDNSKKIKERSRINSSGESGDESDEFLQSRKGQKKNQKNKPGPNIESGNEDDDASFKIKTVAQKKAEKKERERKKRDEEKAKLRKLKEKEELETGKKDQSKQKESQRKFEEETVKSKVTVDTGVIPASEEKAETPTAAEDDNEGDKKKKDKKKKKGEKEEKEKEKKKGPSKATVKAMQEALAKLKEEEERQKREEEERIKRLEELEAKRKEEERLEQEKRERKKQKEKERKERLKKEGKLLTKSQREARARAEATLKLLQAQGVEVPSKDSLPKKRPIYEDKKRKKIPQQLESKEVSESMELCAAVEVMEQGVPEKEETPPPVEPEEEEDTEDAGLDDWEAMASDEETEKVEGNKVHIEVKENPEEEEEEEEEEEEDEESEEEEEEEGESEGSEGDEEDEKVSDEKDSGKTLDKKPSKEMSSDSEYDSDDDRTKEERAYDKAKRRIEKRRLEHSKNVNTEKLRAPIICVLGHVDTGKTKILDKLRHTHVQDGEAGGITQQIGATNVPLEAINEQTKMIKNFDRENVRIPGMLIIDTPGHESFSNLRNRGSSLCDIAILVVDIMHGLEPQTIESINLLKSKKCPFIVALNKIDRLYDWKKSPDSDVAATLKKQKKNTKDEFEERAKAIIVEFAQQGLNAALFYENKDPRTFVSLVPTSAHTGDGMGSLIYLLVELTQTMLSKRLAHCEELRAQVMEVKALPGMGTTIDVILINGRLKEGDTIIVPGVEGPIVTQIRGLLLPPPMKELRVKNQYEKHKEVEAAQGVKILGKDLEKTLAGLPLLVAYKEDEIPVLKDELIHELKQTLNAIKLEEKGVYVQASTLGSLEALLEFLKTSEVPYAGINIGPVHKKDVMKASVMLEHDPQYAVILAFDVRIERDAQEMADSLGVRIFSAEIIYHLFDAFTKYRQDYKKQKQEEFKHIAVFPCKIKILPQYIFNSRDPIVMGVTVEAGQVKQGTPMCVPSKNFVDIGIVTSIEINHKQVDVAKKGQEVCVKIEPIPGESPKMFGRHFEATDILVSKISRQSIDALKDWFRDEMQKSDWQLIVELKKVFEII

[5] = target: T2, Isoleucine--tRNA ligase, mitochondrial (Homo sapiens, UniProt Q9NSE4)
T2 sequence (Q9NSE4 whole entry): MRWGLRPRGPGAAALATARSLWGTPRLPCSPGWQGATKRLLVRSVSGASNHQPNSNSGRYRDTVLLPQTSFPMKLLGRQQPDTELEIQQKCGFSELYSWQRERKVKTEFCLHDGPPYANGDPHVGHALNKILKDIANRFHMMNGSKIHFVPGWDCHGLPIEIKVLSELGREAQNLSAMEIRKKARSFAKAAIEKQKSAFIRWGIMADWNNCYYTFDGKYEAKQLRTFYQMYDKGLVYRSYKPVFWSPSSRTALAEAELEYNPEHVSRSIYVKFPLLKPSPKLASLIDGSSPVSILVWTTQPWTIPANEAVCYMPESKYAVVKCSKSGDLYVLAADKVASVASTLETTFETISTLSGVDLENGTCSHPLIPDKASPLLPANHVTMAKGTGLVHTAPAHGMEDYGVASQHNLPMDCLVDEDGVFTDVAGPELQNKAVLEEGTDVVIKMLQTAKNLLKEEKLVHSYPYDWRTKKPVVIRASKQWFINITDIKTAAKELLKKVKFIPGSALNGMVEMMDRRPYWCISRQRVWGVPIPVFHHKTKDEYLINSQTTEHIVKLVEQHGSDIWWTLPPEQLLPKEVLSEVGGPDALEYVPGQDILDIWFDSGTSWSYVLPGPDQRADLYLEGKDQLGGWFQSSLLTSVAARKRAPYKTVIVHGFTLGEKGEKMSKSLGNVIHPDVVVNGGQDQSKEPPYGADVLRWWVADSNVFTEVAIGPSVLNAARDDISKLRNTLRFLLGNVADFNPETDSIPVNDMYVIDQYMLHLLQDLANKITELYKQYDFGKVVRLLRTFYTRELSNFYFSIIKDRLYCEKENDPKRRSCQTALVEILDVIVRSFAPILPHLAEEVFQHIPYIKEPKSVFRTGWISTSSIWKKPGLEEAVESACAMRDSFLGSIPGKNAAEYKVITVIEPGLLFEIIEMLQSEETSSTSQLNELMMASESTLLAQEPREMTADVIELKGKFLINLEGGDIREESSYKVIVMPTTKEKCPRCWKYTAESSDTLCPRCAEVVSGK

[6] = target: Myosin-10 (Homo sapiens, UniProt P35580)
[7] = target: Serine/threonine-protein kinase PAK 6 (Homo sapiens, UniProt Q9NQU5)
Chain of Serine/threonine-protein kinase PAK 6 (Q9NQU5 whole entry, the tested form may be a part): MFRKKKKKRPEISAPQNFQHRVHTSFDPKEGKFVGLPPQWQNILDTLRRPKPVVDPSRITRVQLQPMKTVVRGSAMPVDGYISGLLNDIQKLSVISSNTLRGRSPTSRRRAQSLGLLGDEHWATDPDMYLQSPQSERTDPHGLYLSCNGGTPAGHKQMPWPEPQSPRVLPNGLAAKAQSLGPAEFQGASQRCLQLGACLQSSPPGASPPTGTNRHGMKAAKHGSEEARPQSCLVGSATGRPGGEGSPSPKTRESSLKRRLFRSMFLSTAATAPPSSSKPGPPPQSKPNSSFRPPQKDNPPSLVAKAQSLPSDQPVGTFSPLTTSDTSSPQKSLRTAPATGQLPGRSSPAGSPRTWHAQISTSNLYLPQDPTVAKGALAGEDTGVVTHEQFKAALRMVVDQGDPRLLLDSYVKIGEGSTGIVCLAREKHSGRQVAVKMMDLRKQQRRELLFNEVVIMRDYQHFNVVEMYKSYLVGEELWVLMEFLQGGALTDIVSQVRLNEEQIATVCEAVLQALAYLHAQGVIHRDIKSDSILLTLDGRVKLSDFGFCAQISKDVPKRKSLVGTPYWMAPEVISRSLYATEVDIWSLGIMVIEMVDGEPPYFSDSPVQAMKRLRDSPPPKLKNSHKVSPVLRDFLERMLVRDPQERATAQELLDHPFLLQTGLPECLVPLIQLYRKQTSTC

[8] = target: PAS domain-containing serine/threonine-protein kinase (Homo sapiens, UniProt Q96RG2)
Chain of PAS domain-containing serine/threonine-protein kinase (Q96RG2 whole entry, the tested form may be a part): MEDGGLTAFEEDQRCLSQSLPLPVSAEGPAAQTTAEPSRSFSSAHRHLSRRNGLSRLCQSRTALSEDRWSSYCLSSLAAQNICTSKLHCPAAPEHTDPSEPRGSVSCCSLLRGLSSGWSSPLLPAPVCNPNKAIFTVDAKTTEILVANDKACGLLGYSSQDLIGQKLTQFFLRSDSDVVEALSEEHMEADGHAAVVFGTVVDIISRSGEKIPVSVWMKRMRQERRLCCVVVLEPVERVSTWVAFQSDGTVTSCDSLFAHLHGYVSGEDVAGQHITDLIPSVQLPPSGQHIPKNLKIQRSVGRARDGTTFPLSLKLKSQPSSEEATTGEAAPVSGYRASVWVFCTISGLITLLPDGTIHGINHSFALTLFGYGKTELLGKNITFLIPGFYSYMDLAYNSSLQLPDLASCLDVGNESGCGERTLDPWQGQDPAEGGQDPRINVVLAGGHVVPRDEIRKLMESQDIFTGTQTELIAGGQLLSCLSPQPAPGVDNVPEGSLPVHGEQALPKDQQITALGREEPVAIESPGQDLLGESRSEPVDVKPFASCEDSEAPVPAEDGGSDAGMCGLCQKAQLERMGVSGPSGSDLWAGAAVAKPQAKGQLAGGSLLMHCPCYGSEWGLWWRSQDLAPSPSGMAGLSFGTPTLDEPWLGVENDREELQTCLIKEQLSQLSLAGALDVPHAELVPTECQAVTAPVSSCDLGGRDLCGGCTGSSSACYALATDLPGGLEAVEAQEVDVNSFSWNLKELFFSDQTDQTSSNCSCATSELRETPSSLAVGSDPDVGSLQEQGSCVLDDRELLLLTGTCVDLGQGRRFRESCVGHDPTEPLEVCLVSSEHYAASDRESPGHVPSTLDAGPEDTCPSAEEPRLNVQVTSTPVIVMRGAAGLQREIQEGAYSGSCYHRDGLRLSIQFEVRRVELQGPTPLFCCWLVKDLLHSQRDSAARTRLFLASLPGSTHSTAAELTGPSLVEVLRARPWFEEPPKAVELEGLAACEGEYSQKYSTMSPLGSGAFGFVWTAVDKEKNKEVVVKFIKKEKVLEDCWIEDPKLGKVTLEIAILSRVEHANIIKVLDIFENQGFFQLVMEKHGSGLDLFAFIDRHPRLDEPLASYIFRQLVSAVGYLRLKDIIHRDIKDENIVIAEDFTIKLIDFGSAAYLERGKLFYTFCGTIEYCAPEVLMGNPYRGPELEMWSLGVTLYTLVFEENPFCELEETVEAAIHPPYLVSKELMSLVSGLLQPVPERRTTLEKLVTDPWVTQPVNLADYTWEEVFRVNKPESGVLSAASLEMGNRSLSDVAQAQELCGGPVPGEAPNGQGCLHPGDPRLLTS

[9] = target: Serine/threonine-protein kinase pim-2 (Homo sapiens, UniProt Q9P1W9)
Chain of Serine/threonine-protein kinase pim-2 (Q9P1W9 whole entry): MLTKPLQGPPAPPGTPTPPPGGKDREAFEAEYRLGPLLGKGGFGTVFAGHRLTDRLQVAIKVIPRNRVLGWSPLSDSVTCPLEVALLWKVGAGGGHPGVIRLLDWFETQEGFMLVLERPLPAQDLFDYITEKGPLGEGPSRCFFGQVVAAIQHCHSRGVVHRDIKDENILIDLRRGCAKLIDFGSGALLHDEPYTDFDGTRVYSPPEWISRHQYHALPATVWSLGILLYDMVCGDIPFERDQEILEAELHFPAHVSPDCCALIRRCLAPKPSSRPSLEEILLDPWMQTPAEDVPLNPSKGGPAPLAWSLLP

[10] = target: Serine/threonine-protein kinase N3 (Homo sapiens, UniProt Q6P5Z2)
Chain of Serine/threonine-protein kinase N3 (Q6P5Z2 whole entry): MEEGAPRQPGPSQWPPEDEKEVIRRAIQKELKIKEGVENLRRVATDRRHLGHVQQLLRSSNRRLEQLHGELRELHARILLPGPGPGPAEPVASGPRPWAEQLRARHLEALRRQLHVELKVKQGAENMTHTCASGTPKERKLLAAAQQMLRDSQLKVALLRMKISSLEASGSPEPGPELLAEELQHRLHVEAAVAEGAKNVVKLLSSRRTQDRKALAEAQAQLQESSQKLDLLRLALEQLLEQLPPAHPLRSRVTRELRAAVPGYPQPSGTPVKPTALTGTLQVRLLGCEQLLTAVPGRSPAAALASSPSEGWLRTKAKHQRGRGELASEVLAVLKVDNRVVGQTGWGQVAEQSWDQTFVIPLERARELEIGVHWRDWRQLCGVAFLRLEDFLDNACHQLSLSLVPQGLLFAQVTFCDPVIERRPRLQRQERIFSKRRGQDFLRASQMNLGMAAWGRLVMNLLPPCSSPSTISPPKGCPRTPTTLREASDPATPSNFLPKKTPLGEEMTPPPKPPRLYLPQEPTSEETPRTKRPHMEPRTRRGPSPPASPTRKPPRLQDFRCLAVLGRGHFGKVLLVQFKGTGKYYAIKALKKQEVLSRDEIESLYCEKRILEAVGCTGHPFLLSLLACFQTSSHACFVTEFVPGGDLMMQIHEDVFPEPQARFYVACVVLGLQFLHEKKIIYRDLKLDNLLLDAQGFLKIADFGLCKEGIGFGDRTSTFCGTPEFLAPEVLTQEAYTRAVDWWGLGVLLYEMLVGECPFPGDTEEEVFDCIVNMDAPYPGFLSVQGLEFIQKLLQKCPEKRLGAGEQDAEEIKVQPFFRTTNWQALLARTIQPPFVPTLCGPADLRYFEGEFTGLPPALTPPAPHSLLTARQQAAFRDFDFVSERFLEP

Measured: Kd
Also: in the data inactive means no Kd found up to 30 µM.

Chain of Uncharacterized aarF domain-containing protein kinase 5 (Q3MIX3 whole entry, the tested form may be a part): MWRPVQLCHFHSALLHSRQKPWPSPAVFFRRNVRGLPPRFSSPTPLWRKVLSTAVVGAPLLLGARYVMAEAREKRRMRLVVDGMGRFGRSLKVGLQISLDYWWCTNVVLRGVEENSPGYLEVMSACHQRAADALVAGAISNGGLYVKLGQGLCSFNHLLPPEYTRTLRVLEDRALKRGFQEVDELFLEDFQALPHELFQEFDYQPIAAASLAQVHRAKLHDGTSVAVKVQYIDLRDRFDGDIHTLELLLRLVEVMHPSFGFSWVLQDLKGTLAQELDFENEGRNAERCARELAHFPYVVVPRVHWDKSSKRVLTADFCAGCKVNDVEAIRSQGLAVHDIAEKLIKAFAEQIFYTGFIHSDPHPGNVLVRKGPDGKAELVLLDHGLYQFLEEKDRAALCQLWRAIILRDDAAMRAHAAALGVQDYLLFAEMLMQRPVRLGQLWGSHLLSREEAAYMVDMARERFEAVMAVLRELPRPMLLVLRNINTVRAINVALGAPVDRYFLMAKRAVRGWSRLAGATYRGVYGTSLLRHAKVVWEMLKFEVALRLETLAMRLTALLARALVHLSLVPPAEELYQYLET
Chain of Cyclin-dependent kinase 17 (Q00537 whole entry): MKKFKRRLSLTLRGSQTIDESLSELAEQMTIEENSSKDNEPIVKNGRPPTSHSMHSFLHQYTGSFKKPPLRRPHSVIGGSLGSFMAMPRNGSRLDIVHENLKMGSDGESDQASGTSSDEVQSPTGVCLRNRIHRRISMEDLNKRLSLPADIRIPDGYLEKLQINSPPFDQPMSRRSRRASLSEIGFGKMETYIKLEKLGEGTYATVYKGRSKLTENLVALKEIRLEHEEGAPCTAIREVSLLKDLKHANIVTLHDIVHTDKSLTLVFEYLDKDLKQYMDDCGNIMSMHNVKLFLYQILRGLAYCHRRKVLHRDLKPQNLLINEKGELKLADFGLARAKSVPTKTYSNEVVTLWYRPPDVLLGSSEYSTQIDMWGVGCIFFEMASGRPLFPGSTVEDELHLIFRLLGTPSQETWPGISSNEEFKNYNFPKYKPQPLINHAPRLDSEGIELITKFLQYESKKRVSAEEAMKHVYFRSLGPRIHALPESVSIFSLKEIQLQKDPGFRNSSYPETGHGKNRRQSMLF

CCS(=O)(=O)N1CC(CC#N)(n2cc(-c3ncnc4[nH]ccc34)cn2)C1 [BARICITINIB]
inactive: [1] > 30 µM | [2] > 30 µM | [3] > 30 µM | [4] > 30 µM | [5] > 30 µM | [6] > 30 µM | [7] > 30 µM | [8] > 30 µM

Cc1cc(Nc2cc(N3CCN(C)CC3)nc(/C=C/c3ccccc3)n2)n[nH]1 [ENMD-2076]
inactive: [1] > 30 µM | [4] > 30 µM | [5] > 30 µM | [6] > 30 µM | [7] > 30 µM | [8] > 30 µM

Cc1ccc(NC(=O)c2ccc(CN3CC[C@H](N(C)C)C3)c(C(F)(F)F)c2)cc1Nc1nccc(-c2cncnc2)n1 [BAFETINIB]
inactive: [1] > 30 µM | [2] > 30 µM | [3] > 30 µM | [6] > 30 µM | [8] > 30 µM | [9] > 30 µM | [10] > 30 µM

O=C(Nc1cccc(Cl)c1)Nc1ncc(CCNc2ncnc3ccsc23)s1 [SNS-314]
inactive: [1] > 30 µM | [4] > 30 µM | [5] > 30 µM | [6] > 30 µM | [10] > 30 µM

CN1CCC(CNc2ccc3ncc(-c4cccc(OC(F)(F)F)c4)n3n2)CC1 [SGI-1776]
inactive: [2] > 30 µM | [3] > 30 µM | [5] > 30 µM | [6] > 30 µM | [7] > 30 µM | [8] > 30 µM | [10] > 30 µM

CCCS(=O)(=O)Nc1ccc(F)c(C(=O)c2c[nH]c3ncc(-c4ccc(Cl)cc4)cc23)c1F [VEMURAFENIB]
inactive: [1] > 30 µM | [2] > 30 µM | [3] > 30 µM | [6] > 30 µM | [9] > 30 µM | [10] > 30 µM

N[C@@H]1CCCN(c2c(/C=C3\SC(=O)NC3=O)cccc2-c2ccccc2)C1
inactive: [1] > 30 µM | [3] > 30 µM | [4] > 30 µM | [5] > 30 µM | [6] > 30 µM

CN1CCC(COc2cnc(-c3cccc(Cn4nc(-c5cccc(C#N)c5)ccc4=O)c3)nc2)CC1 [TEPOTINIB]
inactive: [1] > 30 µM | [2] > 30 µM | [4] > 30 µM | [5] > 30 µM | [7] > 30 µM | [8] > 30 µM

COc1cc2nccc(Oc3ccc(NC(=O)NC4CC4)c(Cl)c3)c2cc1C(N)=O [LENVATINIB]
inactive: [1] > 30 µM | [2] > 30 µM | [3] > 30 µM | [4] > 30 µM | [5] > 30 µM | [6] > 30 µM | [8] > 30 µM | [10] > 30 µM

Cn1cc(-c2ccc(F)c(C(F)(F)F)c2)nc1C1CCN(c2ncnc3[nH]ncc23)CC1 [LY-2584702]
inactive: [3] > 30 µM | [4] > 30 µM | [9] > 30 µM

COC(=O)N[C@@H](C)CNc1nccc(-c2cn(C(C)C)nc2-c2cc(Cl)cc(NS(C)(=O)=O)c2F)n1 [ENCORAFENIB]
inactive: [1] > 30 µM | [2] > 30 µM | [3] > 30 µM | [4] > 30 µM | [5] > 30 µM | [6] > 30 µM | [8] > 30 µM | [10] > 30 µM

Cc1c(F)cc(C(=O)NC2CC2)cc1-c1ccc(C(=O)NCC(C)(C)C)cn1 [LOSMAPIMOD]
inactive: [2] > 30 µM | [3] > 30 µM | [4] > 30 µM | [8] > 30 µM | [9] > 30 µM | [10] > 30 µM

O=C1NC(=O)/C(=C/c2ccc3nccc(-c4ccncc4)c3c2)S1 [GSK-1059615]
inactive: [1] > 30 µM | [2] > 30 µM | [3] > 30 µM | [5] > 30 µM | [6] > 30 µM | [7] > 30 µM

CC[C@@H]1C(=O)N(C)c2cnc(Nc3ccc(C(=O)N[C@H]4CC[C@H](N5CCN(CC6CC6)CC5)CC4)cc3OC)nc2N1C(C)C [VOLASERTIB]
inactive: [1] > 30 µM | [2] > 30 µM | [3] > 30 µM | [4] > 30 µM | [5] > 30 µM | [6] > 30 µM | [8] > 30 µM | [10] > 30 µM

O=c1sn(-c2cccc3ccccc23)c(=O)n1Cc1ccccc1 [TIDEGLUSIB]
inactive: [2] > 30 µM | [3] > 30 µM | [5] > 30 µM | [7] > 30 µM | [8] > 30 µM | [10] > 30 µM

CC(C)Nc1cc(-c2c[nH]c(C(=O)N[C@H](CO)c3cccc(Cl)c3)c2)c(Cl)cn1 [ULIXERTINIB]
inactive: [1] > 30 µM | [2] > 30 µM | [3] > 30 µM | [5] > 30 µM | [6] > 30 µM | [7] > 30 µM | [8] > 30 µM
